Measured values from PubChem BioAssay (NCI).
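How tested: cells in 96-well plates exposed to compound for 48 hours at five concentrations. TGI: total growth inhibition.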

Experiments:
Test in all cases: growth of human tumour cells (NCI), 48 h
HCT-116 colon = tested on: HCT-116 colon
EKVX NSCLC = tested on: EKVX NSCLC
BT-549 breast = tested on: BT-549 breast
SNB-78 CNS = tested on: SNB-78 CNS
M14 melanoma = tested on: M14 melanoma
MALME-3M melanoma = tested on: MALME-3M melanoma
SF-295 CNS = tested on: SF-295 CNS
KM20L2 colon = tested on: KM20L2 colon
DLD-1 colon = tested on: DLD-1 colon
XF 498 CNS = tested on: XF 498 CNS
TK-10 renal = tested on: TK-10 renal
PC-3 prostate = tested on: PC-3 prostate

C[C@]12CCNC(=O)C=C1CC[C@@H]1C2CC[C@@]2(C)C1CC[C@@H]2OC(=O)COc1ccc(N(CCCl)CCCl)cc1 (stereo not given in full)
TGI (HCT-116 colon): 13.9 µM
TGI (EKVX NSCLC): 40.3 µM
TGI (BT-549 breast): 60.2 µM
TGI (SNB-78 CNS): > 70 µM
TGI (M14 melanoma): 20.3 µM
TGI (MALME-3M melanoma): 24.6 µM
TGI (SF-295 CNS): 30.6 µM
TGI (KM20L2 colon): 30.3 µM
TGI (DLD-1 colon): 17.8 µM
TGI (XF 498 CNS): 4.89 µM
TGI (TK-10 renal): 35.6 µM

Cc1ccc(C)c(NC(=O)CC2SC(=Nc3ccccc3Cl)NC2=O)c1 (stereo not given)
TGI (HCT-116 colon): > 100 µM
TGI (EKVX NSCLC): > 100 µM
TGI (SNB-78 CNS): > 100 µM
TGI (M14 melanoma): > 100 µM
TGI (MALME-3M melanoma): > 100 µM
TGI (SF-295 CNS): > 100 µM
TGI (KM20L2 colon): > 100 µM
TGI (DLD-1 colon): > 100 µM
TGI (XF 498 CNS): > 100 µM
TGI (TK-10 renal): > 100 µM

O=C1c2ccccc2C(=O)c2sc(Nc3ccccc3Cl)nc21
TGI (PC-3 prostate): 25.9 µM
TGI (HCT-116 colon): 22.9 µM
TGI (EKVX NSCLC): 22.2 µM
TGI (BT-549 breast): 29.5 µM
TGI (SNB-78 CNS): 40.8 µM
TGI (M14 melanoma): 13.1 µM
TGI (MALME-3M melanoma): 28 µM
TGI (SF-295 CNS): 30.1 µM
TGI (KM20L2 colon): 39.5 µM
TGI (DLD-1 colon): 25.1 µM
TGI (XF 498 CNS): 30.2 µM
TGI (TK-10 renal): 34.2 µM

C=CCOC(=O)C1CCC(=O)N1C(=O)C(Cl)Cl (stereo not given)
TGI (HCT-116 colon): > 100 µM
TGI (EKVX NSCLC): > 100 µM
TGI (SNB-78 CNS): > 100 µM
TGI (M14 melanoma): > 100 µM
TGI (MALME-3M melanoma): > 100 µM
TGI (SF-295 CNS): > 100 µM
TGI (KM20L2 colon): > 100 µM
TGI (DLD-1 colon): > 100 µM
TGI (XF 498 CNS): 33.2 µM
TGI (TK-10 renal): > 100 µM

COC1C2c3cc4c(cc3CC(C#N)(c3ccccc32)N1C(=O)c1ccccc1)OCO4 (stereo not given)
TGI (HCT-116 colon): > 100 µM
TGI (EKVX NSCLC): > 100 µM
TGI (SNB-78 CNS): > 100 µM
TGI (M14 melanoma): > 100 µM
TGI (MALME-3M melanoma): > 100 µM
TGI (SF-295 CNS): > 100 µM
TGI (KM20L2 colon): > 100 µM
TGI (DLD-1 colon): > 100 µM
TGI (XF 498 CNS): > 100 µM
TGI (TK-10 renal): > 100 µM

COc1cccc2c1C(=O)OC2c1cccc2ccccc12 (stereo not given)
TGI (PC-3 prostate): > 100 µM
TGI (HCT-116 colon): > 100 µM
TGI (EKVX NSCLC): > 100 µM
TGI (BT-549 breast): > 100 µM
TGI (SNB-78 CNS): > 100 µM
TGI (M14 melanoma): > 100 µM
TGI (MALME-3M melanoma): > 100 µM
TGI (SF-295 CNS): > 100 µM
TGI (KM20L2 colon): > 100 µM
TGI (DLD-1 colon): > 100 µM
TGI (XF 498 CNS): > 100 µM
TGI (TK-10 renal): > 100 µM

CN(/N=C/c1cccc2cccnc12)c1c([N+](=O)[O-])cc([N+](=O)[O-])cc1[N+](=O)[O-]
TGI (HCT-116 colon): > 100 µM
TGI (EKVX NSCLC): > 100 µM
TGI (SNB-78 CNS): > 100 µM
TGI (M14 melanoma): > 100 µM
TGI (MALME-3M melanoma): > 100 µM
TGI (SF-295 CNS): > 100 µM
TGI (KM20L2 colon): > 100 µM
TGI (DLD-1 colon): > 100 µM
TGI (XF 498 CNS): > 100 µM
TGI (TK-10 renal): > 100 µM
